Columns and labels:
[1] = test system: HCT-116 WT, HCT-116.1 A171T and HCT-116.4 C324Y cells; assay: Drug efflux inhibitor co-incubation, ATPlite viability assay; assay type: cell-based; details: co-treatment with MLN4924, 96 hours
Experimental: Treatment of cells with efflux inhibitors. FIG. 8A. […] Co-incubation studies were performed with various inhibitors of drug efflux at their highest non toxic concentration.
Diypridamole (Sigma), MK571 (Tocris), GF918, K0143 (Tocris) and LY5979 were obtained from commercial sources indicated.

[2] = biological target: T1, wild type UBA3 (NAE) (Homo sapiens, UniProt Q8TBC4); assay: NAE HTRF assay, IC50 at KM for ATP (20 μM); assay type: biochemical; details: read-out: NAE WT IC50
T1 construct: His; made in house; host or cells: E. coli Rosetta (DE3), co-expression
T1 sequence (Q8TBC4 whole entry): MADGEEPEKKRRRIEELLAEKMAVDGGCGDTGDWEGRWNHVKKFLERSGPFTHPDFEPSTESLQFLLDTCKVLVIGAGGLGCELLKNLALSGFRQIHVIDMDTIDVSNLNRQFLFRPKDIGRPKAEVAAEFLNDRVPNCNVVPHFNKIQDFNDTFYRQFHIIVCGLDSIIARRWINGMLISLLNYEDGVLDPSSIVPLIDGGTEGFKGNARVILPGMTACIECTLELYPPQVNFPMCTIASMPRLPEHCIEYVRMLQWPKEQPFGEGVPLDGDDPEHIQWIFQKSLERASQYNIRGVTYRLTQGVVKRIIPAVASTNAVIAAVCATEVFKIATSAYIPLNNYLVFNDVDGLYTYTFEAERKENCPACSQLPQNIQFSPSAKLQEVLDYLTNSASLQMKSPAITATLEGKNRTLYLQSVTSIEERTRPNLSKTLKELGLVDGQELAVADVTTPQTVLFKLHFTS
T1 sequence (Q13564 whole entry partner): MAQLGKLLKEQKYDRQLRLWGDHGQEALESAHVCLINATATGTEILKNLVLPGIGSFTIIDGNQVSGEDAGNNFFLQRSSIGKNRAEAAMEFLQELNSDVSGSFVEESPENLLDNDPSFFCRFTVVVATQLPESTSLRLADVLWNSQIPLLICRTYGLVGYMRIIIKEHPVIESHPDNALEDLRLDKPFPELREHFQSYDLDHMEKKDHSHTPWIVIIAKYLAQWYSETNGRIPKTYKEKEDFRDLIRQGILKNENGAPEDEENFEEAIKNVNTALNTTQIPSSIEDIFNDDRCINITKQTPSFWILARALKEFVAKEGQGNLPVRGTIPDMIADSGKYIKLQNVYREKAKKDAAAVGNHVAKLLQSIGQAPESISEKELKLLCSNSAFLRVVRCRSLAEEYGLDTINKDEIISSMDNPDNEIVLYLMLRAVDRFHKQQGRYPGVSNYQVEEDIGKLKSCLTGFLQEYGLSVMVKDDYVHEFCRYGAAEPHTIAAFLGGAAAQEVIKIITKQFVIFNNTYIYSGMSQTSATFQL
T1 sequence (Q15843 1-76 partner limits assumed): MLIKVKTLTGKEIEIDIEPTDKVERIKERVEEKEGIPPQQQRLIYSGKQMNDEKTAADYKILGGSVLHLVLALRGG
Experimental: (§1) The enzyme reversibility assay was run in the FLAG-NEDD8-GST-UBC12 HTRF transthiolation assay described previously (Soucy et al., 2009, Brownell et al., 2010). Final concentrations of each enzyme after dilution were 10 pM WT NAEβ, 12.5 pM A171T NAEβ, 30 pM N209K NAEβ, and 33 pM E204K/G201V NAEβ.
(§2) IC50 measurements were performed in the HTRF assay described in Example 6. Assays for each enzyme were performed at their KM for ATP (20 μM for wild type, 120 μM for the A171T mutant).
(§3) An NAE enzymatic reaction totals 50 μL and contains 50 mM HEPES (pH 7.5), 0.05% BSA, 5 mM MgCl2, 20 μM ATP, 250 μM GSH, 0.01 μM UBC12-GST, 0.075 NEDD8-Flag and 0.28 nM recombinant human NAE enzyme. The enzymatic reaction mixture, with and without compound inhibitor, is incubated at 24° C. for 90 minutes in a 384-well plate before termination with 25 μL of Stop/Detection buffer (0.1M HEPES pH 7.5, 0.05% Tween20, 20 mM EDTA, 410 mM KF, 0.53 nM Europium-Cryptate labeled monoclonal anti-FLAG M2 antibody (CisBio International) and 8.125 μg/mL PHYCOLINK goat anti-GST allophycocyanin (XL-APC) antibody (Prozyme)). After incubation for 3 hours at 24° C., quantification of the FRET is performed on the Analyst™ HT 96.384 (Molecular Devices).

[3] = biological target: T2, UBA3 variant with A171T mutation (NAE) (Homo sapiens, UniProt Q8TBC4, A171T); assay: NAE HTRF assay, IC50 at KM for ATP (120 μM); assay type: biochemical; details: for IC50: UBA3 A171T mutant, HTRF assay at KM for ATP, 120 μM; for A171T/WT: ratio of IC50 A171T mutant to IC50 wild type
T2 construct: His; made in house; host or cells: E. coli Rosetta (DE3), co-expression
T2 sequence (Q8TBC4 whole entry A171T): as the sequence (Q8TBC4 whole entry) above, with A171T counted along it
T2 sequence (Q13564 whole entry partner): as the sequence (Q13564 whole entry partner) above
T2 sequence (Q15843 1-76 partner limits assumed): as the sequence (Q15843 1-76 partner limits assumed) above
Experimental: as §1, §2, §3

[4] = test system: MLN4924 resistant HCT-116 cell clones; assay: Cell viability assay, 96 hours ATPlite, resistant clones; assay type: cell-based; details: HCT-116 resistant clones, 96 hours ATPlite
Experimental: HCT-116 cells and resistant clones were treated with DMSO or various concentrations of FIG. 7A. bortezomib, FIG. 7B. doxorubicin or FIG. 7C. SN-38 for 96 hours and cell viability was assessed with ATPlite assay.
Cell line cultures were maintained using appropriate cell culture media as recommended by ATCC and as previously reported (Soucy et al., 2009, Milhollen et al., 2010). […] Cell viability assays completed using 96 hours ATPlite assay (PerkinElmer) as previously reported (Soucy et al., 2009).

Row | IC50 [2] [nM] | IC50 [3] [nM] | A171T/WT [3] | Structure (SMILES) | sensitization of cells to MLN4924 by Pgp, BCRP and MRP2 inhibitors [1] | sensitivity of MLN4924 resistant clones to other chemotherapies [4]
1 |  |  |  | CN(C)C(=O)CCSC(SCCC(=O)O)c1cccc(/C=C/c2ccc3ccc(Cl)cc3n2)c1 (stereo not drawn) [MK519] | did not sensitize | 
2 | 72 | 630 | 9 | CNc1ncnc2c1ccn2C1CC(O)C(COS(N)(=O)=O)C1 (stereo not drawn) [Compound I-40] |  | 
3 |  |  |  | COc1cc2c(cc1OC)CN(CCc1ccc(NC(=O)c3cccc4c(=O)c5cccc(OC)c5[nH]c34)cc1)CC2 [GF120918] | did not sensitize | 
4 |  |  |  | COc1cccc2c1C(=O)c1c(O)c3c(c(O)c1C2=O)C[C@@](O)(C(=O)CO)C[C@@H]3O[C@H]1C[C@H](N)[C@H](O)[C@H](C)O1 [doxorubicin] |  | remained sensitive
5 | 37 | 250 | 7 | Cc1ncnc2c1ccn2[C@@H]1C[C@@H](COS(N)(=O)=O)[C@@H](O)C1 [Compound I-46] |  | 
